Results on nine molecules are retold here after PubChem BioAssay (NCI).

Test systems include A549 NSCLC; ACHN renal; BT-549 breast; COLO 205 colon; DU-145 prostate; HCT-15 colon; HOP-62 NSCLC; HOP-92 NSCLC; HS 578T breast; LOX IMVI melanoma; M14 melanoma; MDA-N; MOLT-4 leukemia; SF-295 CNS; TK-10 renal; UACC-257 melanoma.
What all share (assay): DTP human tumour cell line panel, 48 h

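Where inhibition never reached the appropriate level, the endpoint shown equals the highest concentration tested. Otherwise, values were interpolated linearly from a five-concentration, 48-hour dose response in 96-well plates. At the TGI there is no net growth.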

For `COC(=O)c1ccccc1C1CN=NC12Cc1c(ccc3c1CCC3)C2=O` (centres undefined), the TGI with A549 NSCLC, in the test with ACHN renal, with BT-549 breast, with COLO 205 colon, in the test on DU-145 prostate and in the test on HCT-15 colon was greater than 100 µM in each case. Moreover, the total growth inhibition concentration (TGI) (as a rule, the concentration giving total growth inhibition) with HOP-62 NSCLC was greater than 100 µM; with HOP-92 NSCLC it was greater than 100 µM; with HS 578T breast it was greater than 100 µM; in the test on LOX IMVI melanoma, 60.4 µM; in the test with M14 melanoma it was greater than 100 µM; in the test on MDA-N it was 49.5 µM. Also, the TGI is greater than 100 µM in the test with MOLT-4 leukemia, greater than 100 µM in the test with SF-295 CNS, greater than 100 µM with TK-10 renal and 95.1 µM with UACC-257 melanoma.
Consider `C[C@]12CC[C@H]3[C@@H](CCC4=CC(=O)C=C[C@@]43OC(=O)C(F)(F)F)[C@@H]1CCC2=O`, for which the total growth inhibition concentration (TGI) in the test with A549 NSCLC, with ACHN renal, in the test on BT-549 breast, in the test with COLO 205 colon, in the test on DU-145 prostate and in the test on HCT-15 colon was greater than 100 µM throughout. Further, the TGI in the test on HOP-62 NSCLC, with HOP-92 NSCLC, with HS 578T breast, in the test with LOX IMVI melanoma, with M14 melanoma and with MDA-N was greater than 100 µM each time. Further, the total growth inhibition concentration (TGI) in the test with MOLT-4 leukemia, in the test with SF-295 CNS, with TK-10 renal and in the test with UACC-257 melanoma was greater than 100 µM throughout.
Consider `O=C(O)CSc1ccccc1C(=O)O`, for which the TGI with A549 NSCLC, in the test on ACHN renal, with BT-549 breast, in the test on COLO 205 colon, in the test with DU-145 prostate and in the test on HCT-15 colon was greater than 100 µM in each case. Also, the concentration for total growth inhibition (TGI) with HOP-62 NSCLC, in the test with HOP-92 NSCLC, with HS 578T breast, in the test with LOX IMVI melanoma, in the test with M14 melanoma and in the test with MDA-N was greater than 100 µM throughout. Further, the TGI in the test on MOLT-4 leukemia was greater than 100 µM; in the test on SF-295 CNS it was greater than 100 µM; with TK-10 renal, 53.5 µM; with UACC-257 melanoma, 34.1 µM.
In the case of `COc1ccc(C#Cn2nnc3ccccc32)cc1`, the TGI in the test on A549 NSCLC, in the test on ACHN renal, in the test with BT-549 breast, in the test on COLO 205 colon, in the test on DU-145 prostate and in the test on HCT-15 colon was greater than 100 µM in each case. Moreover, the TGI in the test with HOP-62 NSCLC, in the test with HOP-92 NSCLC, in the test on HS 578T breast, in the test on LOX IMVI melanoma, in the test with M14 melanoma and in the test with MDA-N was greater than 100 µM in each case. In addition, the concentration for total growth inhibition (TGI) in the test with MOLT-4 leukemia, in the test on SF-295 CNS, with TK-10 renal and in the test with UACC-257 melanoma was greater than 100 µM in each case.
With `Cc1cn(C2CCC(CO)(CF)O2)c(=O)[nH]c1=O` (centres undefined), the concentration for total growth inhibition (TGI) in the test on A549 NSCLC, with ACHN renal, with BT-549 breast, in the test on COLO 205 colon, in the test with DU-145 prostate and in the test on HCT-15 colon was greater than 100 µM each time. The concentration for total growth inhibition (TGI) in the test with HOP-62 NSCLC, with HOP-92 NSCLC, with HS 578T breast, with LOX IMVI melanoma, with M14 melanoma and in the test on MDA-N was greater than 100 µM in each case. Besides, the TGI with MOLT-4 leukemia, in the test with SF-295 CNS, in the test with TK-10 renal and with UACC-257 melanoma was greater than 100 µM in each case.
`N#Cc1c(-c2ccc(Cl)cc2)cc(-c2ccc(Nc3ccnc4cc(Cl)ccc34)cc2)[nH]c1=O`: the TGI was greater than 100 µM in the test with A549 NSCLC; greater than 85.4 µM in the test on ACHN renal; 54.2 µM in the test on BT-549 breast; greater than 100 µM with COLO 205 colon; greater than 100 µM with DU-145 prostate; greater than 100 µM in the test with HCT-15 colon. The TGI is greater than 62.8 µM with HOP-62 NSCLC; 61.2 µM in the test with HOP-92 NSCLC; 62.4 µM in the test with HS 578T breast; greater than 100 µM in the test on LOX IMVI melanoma; greater than 100 µM with M14 melanoma; greater than 100 µM with MDA-N. The concentration for total growth inhibition (TGI) in the test with MOLT-4 leukemia was greater than 100 µM; in the test on SF-295 CNS it was greater than 62.1 µM; in the test on TK-10 renal, greater than 55.3 µM; with UACC-257 melanoma, greater than 100 µM.
In the case of `CC(C)(C)OC(=O)[C@@H]1CCC(=O)N1C1(c2ccccc2)c2ccccc2-c2ccccc21`, the TGI in the test with A549 NSCLC is greater than 100 µM; in the test with ACHN renal it was greater than 100 µM; in the test with BT-549 breast, greater than 100 µM; in the test on COLO 205 colon it was 77.8 µM; in the test with DU-145 prostate, greater than 100 µM; in the test on HCT-15 colon, greater than 100 µM. In addition, the TGI with HOP-62 NSCLC was greater than 100 µM; with HOP-92 NSCLC, greater than 100 µM; in the test with HS 578T breast, greater than 100 µM; with LOX IMVI melanoma it was 37.2 µM; with M14 melanoma it was greater than 100 µM; in the test on MDA-N, 96.8 µM. In addition, the TGI in the test on MOLT-4 leukemia was 51.5 µM; in the test on SF-295 CNS, 61.1 µM; in the test with TK-10 renal, greater than 100 µM; in the test on UACC-257 melanoma, greater than 100 µM.
Take `O[C@@H]1C=C[C@]23CCN(Cc4cc5c(cc42)OCO5)[C@@H]3C1`: the TGI in the test with A549 NSCLC, in the test on ACHN renal, with BT-549 breast, with COLO 205 colon, in the test on DU-145 prostate and with HCT-15 colon was greater than 100 µM throughout. Besides, the TGI in the test with HOP-62 NSCLC, in the test with HOP-92 NSCLC, with HS 578T breast, with LOX IMVI melanoma, with M14 melanoma and with MDA-N was greater than 100 µM each time. Besides, the TGI with MOLT-4 leukemia, in the test on SF-295 CNS, in the test with TK-10 renal and with UACC-257 melanoma was greater than 100 µM throughout.
As to `COc1cc2cc(C(=O)N3CC(COS(C)(=O)=O)c4ccc(NC(=O)OCc5ccccc5)cc43)[nH]c2c(OC)c1OC` (centres undefined), the TGI in the test with A549 NSCLC, in the test with ACHN renal, in the test on BT-549 breast, in the test on COLO 205 colon, in the test with DU-145 prostate and with HCT-15 colon was greater than 100 µM in each case. Moreover, the TGI with HOP-62 NSCLC, with HOP-92 NSCLC, in the test on HS 578T breast, in the test with LOX IMVI melanoma, in the test with M14 melanoma and in the test with MDA-N was greater than 100 µM in each case. For the same molecule, the TGI in the test on MOLT-4 leukemia, in the test with SF-295 CNS, in the test on TK-10 renal and in the test with UACC-257 melanoma was greater than 100 µM in each case.
